# Test results as given in USRE42152E1, “Aromatic-linked polyamine macrocyclic compounds with anti-HIV activity” (Genzyme Corporation, priority 1992, dated 2011).
# Read-outs that look alike come from different tables or passages of the source.
# How the values were obtained:
# Type in all cases: cell-based
# HIV-1 (HTLV-IIIB) = assay: microbe, parasite or virus in culture; settings: for IC50: Human immunodeficiency virus 1, IIIB, MT4, 120 h, read-out: IC50 HIV-1 (IIIB)
# HIV-2 (LAV-2 ROD) = assay: MTT anti-viral screen, MT-4 cells challenged with HIV-2; settings: for IC50: Human immunodeficiency virus 2, MT4, 120 h, read-out: IC50 HIV-2 (ROD)
# MT-4 cells = assay: Cytotoxicity by MTT method in MT-4 cells
# [1] = Cytotoxicity by MTT method in MT-4 cells
# [2] = MT-4 cells, 100 CCID50, 5 days, MTT
# [3] = MT-4 cells, 5 days, MTT, HIV-1 part of table
# [4] = MT-4 cells, 5 days, MTT, HIV-2 part of table
# [5] = human, MT-4 cells, 5 days, MTT; HIV-1 part of table; read-out: CC50 (HIV-1 (IIIB))
# [6] = human, MT-4 cells, 5 days, MTT; HIV-2 part of table; read-out: CC50 (HIV-2 (ROD))
# [7] = human; MT-4 cells, 5 days, MTT; HIV-1 part of table; read-out: CC50 (HIV-1 (IIIB))
Compound,IC50 HIV-1 (IIIB) (HIV-1 (HTLV-IIIB); [2]) [µg/mL],IC50 HIV-2 (ROD) (HIV-2 (LAV-2 ROD); [2]) [µg/mL],CC50 (HIV-1 (IIIB)) (MT-4 cells) [µg/mL],CC50 (HIV-2 (ROD)) (MT-4 cells) [µg/mL],other results
"1,1′-[1,4-Phenylene-bis-(methylene)]-bis-1,4,8,11-tetraazacyclotetradecane copper diacetate hexahydrate [Compound G]",0.018,0.027,–,–,CC50 (HIV-1 (IIIB)) (MT-4 cells; [3]): >200 µg/mL; CC50 (HIV-2 (ROD)) (MT-4 cells; [4]): >200 µg/mL
"1,1′-[1,4-Phenylene-bis-(methylene)]-bis-1,4,8,11-tetraazacyclotetradecane zinc dichloride monohydrate [Compound F]",0.0026,0.0019,–,–,CC50 (HIV-1 (IIIB)) (MT-4 cells; [3]): >200 µg/mL; CC50 (HIV-2 (ROD)) (MT-4 cells; [4]): >200 µg/mL
"c1cc(CN2CCCNCCNCCCNCC2)cc(CN2CCCNCCNCCCNCC2)c1 [A, 1,1′-[1,3-phenylenebis(methylene)]bis-1,4,8,11-tetraazacyclotetradecane]",–,–,–,–,"IC50 (HIV-1 (HTLV-IIIB); [2]): 0.03 µg/mL; IC50 (HIV-2 (LAV-2 ROD); [2]): < 0.01 µg/mL; CC50 at 5 days [1, 5]: > 500 µg/mL; CC50 at 5 days [1, 6]: > 500 µg/mL"
"O=[N+]([O-])c1cc(CN2CCCNCCNCCCNCC2)cc(CN2CCCNCCNCCCNCC2)c1 [Compound C, 1,1′-[5-nitro-1,3-phenylenebis-(methylene)]-bis-1,4,8,11-tetraazacyclotetradecane]",–,–,–,–,"IC50 (HIV-1 (HTLV-IIIB); [2]): 0.05 µg/mL; IC50 (HIV-2 (LAV-2 ROD); [2]): 0.07 µg/mL; CC50 at 5 days [1, 5]: 55 µg/mL; CC50 at 5 days [1, 6]: 55 µg/mL"
"Br.Br.Br.Br.Br.Br.Br.Br.Br.Br.O.O.O.O.O.c1cc(CN2CCCNCCNCCCNCC2)cc(-c2cc(CN3CCCNCCNCCCNCC3)ccn2)n1 [Compound K, 1,1′-[4,4′-(2,2′-Bipyridine)-bis-(methyl)]-bis-1,4,8,11-tetraazacyclotetradecane decahydrobromide pentahydrate]",0.38,0.35,–,–,CC50 (HIV-1 (IIIB)) (MT-4 cells; [3]): 117 µg/mL; CC50 (HIV-2 (ROD)) (MT-4 cells; [4]): 117 µg/mL
"Br.Br.Br.Br.Br.Br.Br.Br.Br.Br.O.O.O.c1cc2ccc3ccc(CN4CCCNCCNCCCNCC4)nc3c2nc1CN1CCCNCCNCCCNCC1 [Compound L, 1,1′-[2,9-(1,10-Phenanthroline)-bis-(methylene)]-bis-1,4,8,11-tetraazacyclotetradecane decahydrobromide trihydrate]",0.29,0.32,>200,>200,–
"Br.Br.Br.Br.Br.Br.Br.Br.O.O.c1cc(CN2CCCNCCNCCNCCC2)ccc1CN1CCCNCCNCCNCCC1 [Compound M, 11,11′-[1,4-Phenylene-bis-(methylene)]-bis-1,4,7,11-tetraazacyclotetradecane octahydrobromide dihydrate]",–,–,–,–,"IC50 (HIV-1 (HTLV-IIIB)): 0.03 µg/mL; IC50 (HIV-2 (LAV-2 ROD)): 0.07 µg/mL; CC50 (HIV-2 (ROD)) (MT-4 cells; [4]): >500 µg/mL; CC50 at 5 days [1, 7]: > 500 µg/mL"
"Br.Br.Br.Br.Br.Br.c1cc(CN2CCNCCNCCNCC2)cc(CN2CCNCCNCCNCC2)c1 [Compound Q, 1,1′-[1,3-Phenylenebis-(methylene)]-bis-1,4,7,10-tetraazacyclododecane hexahydrobromide]",–,–,–,–,"IC50 (HIV-1 (HTLV-IIIB)): 0.07 µg/mL; IC50 (HIV-2 (LAV-2 ROD)): 0.5 µg/mL; CC50 at 5 days [1, 7]: 19 µg/mL"
"Br.Br.Br.Br.Br.Br.c1cc(CN2CCNCCNCCNCC2)ccc1CN1CCNCCNCCNCC1 [Compound R, 1,1′-[1,4-Phenylenebis-(methylene)]-bis-1,4,7,10-tetraazacyclododecane hexahydrobromide]",–,–,–,–,"IC50 (HIV-1 (HTLV-IIIB)): 0.3 µg/mL; IC50 (HIV-2 (LAV-2 ROD)): 2.2 µg/mL; CC50 at 5 days [1, 7]: 51 µg/mL"
"c1ccc2c(CN3CCCNCCNCCCNCC3)ccc(CN3CCCNCCNCCCNCC3)c2c1 [E, 1,1′-[1,4-naphthylenebis(methylene)]bis-1,4,8,11-tetraazacyclotetradecane]",0.07,0.05,71,71,–
"Cc1cc(CN2CCCNCCNCCCNCC2)c(C)cc1CN1CCCNCCNCCCNCC1 [W, 1,1′-[2,5-dimethyl-1,4-phenylenebis-(methylene)]-bis-1,4,8,11-tetraazacyclotetradecane]",–,–,–,–,"IC50 (HIV-1 (HTLV-IIIB); [2]): 0.0076 µg/mL; IC50 (HIV-2 (LAV-2 ROD); [2]): 0.0013 µg/mL; CC50 at 5 days [1, 5]: > 250 µg/mL; CC50 at 5 days [1, 6]: > 250 µg/mL"
"Clc1cc(CN2CCCNCCNCCCNCC2)c(Cl)cc1CN1CCCNCCNCCCNCC1 [X, 1,1′-[2,5-dichloro-1,4-phenylenebis-(methylene)]-bis-1,4,8,11-tetraazacyclotetradecane]",–,–,–,–,"IC50 (HIV-1 (HTLV-IIIB); [2]): 0.0131 µg/mL; IC50 (HIV-2 (LAV-2 ROD); [2]): 0.003 µg/mL; CC50 at 5 days [1, 5]: 71.9 µg/mL; CC50 at 5 days [1, 6]: 72.7 µg/mL"
"Brc1cc(CN2CCCNCCNCCCNCC2)ccc1CN1CCCNCCNCCCNCC1 [Y, 1,1′-[2-bromo-1,4-phenylenebis-(methylene)]-bis-1,4,8,11-tetraazacyclotetradecane]",–,–,–,–,"IC50 (HIV-1 (HTLV-IIIB); [2]): 0.0075 µg/mL; IC50 (HIV-2 (LAV-2 ROD); [2]): 0.0043 µg/mL; CC50 at 5 days [1, 5]: > 250 µg/mL; CC50 at 5 days [1, 6]: > 250 µg/mL"
"c1ccc(-c2cc(CN3CCCNCCNCCCNCC3)cc(CN3CCCNCCNCCCNCC3)n2)cc1 [Z, 1,1′-[6-phenyl-2,4-pyridinebis-(methylene)]-bis-1,4,8,11-tetraazacyclotetradecane]",0.0489,0.0246,>250,>250,–

# Continued, in another order:
IC50 HIV-1 (IIIB) (HIV-1 (HTLV-IIIB); [2]) [µg/mL],IC50 HIV-2 (ROD) (HIV-2 (LAV-2 ROD); [2]) [µg/mL],Compound,CC50 (HIV-1 (IIIB)) (MT-4 cells) [µg/mL],CC50 (HIV-2 (ROD)) (MT-4 cells) [µg/mL],other results
0.16,0.22,"Br.Br.Br.Br.Br.Br.Br.Br.O.O.O.O.c1cc(CN2CCCNCCNCCCNCC2)cc(-c2cccc(CN3CCCNCCNCCCNCC3)c2)c1 [Compound J, 1,1′-[3,3′-Biphenylene-bis-(methylene)]-bis-1,4,8,11-tetraazacyclotetradecane octahydrobromide tetrahydrate]",>200,>200,–
0.01,0.07,"Br.Br.Br.Br.Br.Br.Br.Br.O.O.O.O.O.O.c1cc(CN2CCCNCCNCCCNCC2)ccc1CN1CCCNCCNCCNCCC1 [Compound N, 1,11′-[1,4-Phenylene-bis-(methylene)]-1,4,8,11-tetraazacyclotetradecane-1,4,7,11-tetraazacydotetradecane octahydrobromide hexahydrate]",>500,>500,–
0.03,0.08,"Br.Br.Br.Br.Br.Br.Br.Br.O.O.O.O.c1cc(CN2CCCNCCNCCCNCC2)nc(CN2CCCNCCNCCCNCC2)c1 [Compound O, 1,1′-[2,6-Pyridinebis-(methylene)]-bis-1,4,8,11-tetraazacyclotetradecane octahydrobromide tetrahydrate]",>500,>500,–
0.04,0.09,"Br.Br.Br.Br.Br.Br.Br.Br.Br.O.O.c1ncc(CN2CCCNCCNCCCNCC2)cc1CN1CCCNCCNCCCNCC1 [Compound P, 1,1′[3,5-Pyridinebis-(methylene)]-bis-1,4,8,11-tetraazacyclotetradecane nonahydrobromide dihydrate]",>500,>500,–
0.01,0.02,"Br.Br.Br.Br.Br.Br.Br.Br.c1cc(CN2CCCNCCNCCCNCC2)sc1CN1CCCNCCNCCCNCC1 [Compound T, 1,1′-[2,5-Thophenebis-(methylene)]-bis-1,4,8,11-tetraazacyclotetradecane octahydrobromide]",>500,>500,–
